Reference: patent publication US20150018384A1, “TREATMENT FOR HIGH CHOLESTEROL” (FibroGen, Inc., priority 2012, published 2015)

Test system: Cholesterol Biosynthesis Genes in the Mouse Liver
Test: Microarray expression of cholesterol biosynthesis genes in mouse liver
Format: in vivo
Experimental: A number of PHI compounds were evaluated for their effect on the expression of cholesterol biosynthesis genes in mouse liver. […] Liver tissue was harvested and stored in RNALater (Life Technologies). Total RNA was isolated with Trizol (Life Technologies) and purified with RNEasy96 (Qiagen) according to the manufacturers' protocols. RNA concentration was measured by NanoDrop (Thermo), and quality was assessed by Bioanalyzer (Agilent).
Biotinylated microarray probe was prepared using the 3′IVT Express kit (Affymetrix) and hybridized to mouse 430A 2.0 arrays as recommended in the manufacturer's protocol. Arrays were stained, washed, and scanned using Affymetrix equipment and software. Three arrays were run for each treatment and time point, each representing the liver sample from one individual animal.
Animals were sacrificed 4 h or 8 h later. Each compound was tested in a separate animal study with separate controls. Liver tissue was harvested and stored in RNALater (Life Technologies). Total RNA was isolated with Trizol (Life Technologies) and purified with RNEasy96 (Qiagen) according to the manufacturers' protocols. RNA concentration was measured by NanoDrop (Thermo), and quality was assessed by Bioanalyzer (Agilent).
For microarray analysis, RNA from animals in each treatment group was pooled in pairs (n=3 pairs for 4 h vehicle, n=2 pairs for all other treatment groups, for a total of 13 arrays per compound study). This approach was used to improve the signal-to-noise ratio on microarrays. Biotinylated probe was prepared using the One-Cycle cDNA synthesis kit (Affymetrix) and hybridized to mouse 430A 2.0 arrays as recommended in the manufacturer's protocol. Arrays were stained, washed, and scanned using Affymetrix equipment and software.
Array quality was assessed with GeneChip Operating System and/or Command Console software (Affymetrix). CEL files were uploaded to GeneSpring 7.3.1 (Agilent) using GC-RMA baseline correction. Principal Components Analysis was used to identify and reject outlier arrays. Data are reported as fold-change compared to timepoint-matched vehicle controls from the same study. Values less than 1.0 indicate a reduction of RNA in the treated animal liver tissue.

Compound: COc1ccc(Cn2c(Cl)c(Cl)c3c(O)c(C(=O)NCC(=O)O)nc(C#N)c32)cc1 [Compound F]
- 3-hydroxy-3-methylglutaryl-Coenzyme A reductase (Hmgcr) RNA expression (10 mg/kg oral, 4 h): 0.17 fold-change
- 3-hydroxy-3-methylglutaryl-Coenzyme A synthase 1 (Hmgcs1) RNA expression (10 mg/kg oral, 4 h): 0.36 fold-change
- 7-dehydrocholesterol reductase (Dhcr7) RNA expression (10 mg/kg oral, 4 h): 0.63 fold-change
- NAD(P) dependent steroid dehydrogenase-like (Nsdhl) RNA expression (10 mg/kg oral, 4 h): 0.55 fold-change
- acetyl-Coenzyme A acetyltransferase 2 (Acat2) RNA expression (10 mg/kg oral, 4 h): 0.77 fold-change
- cytochrome P450, family 51 (Cyp51) RNA expression (10 mg/kg oral, 4 h): 0.62 fold-change
- farnesyl diphosphate farnesyl transferase 1 (Fdft1) RNA expression (10 mg/kg oral, 4 h): 0.56 fold-change
- farnesyl diphosphate synthetase (Fdps) RNA expression (10 mg/kg oral, 4 h): 0.43 fold-change
- isopentenyl-diphosphate delta isomerase (Idi1) RNA expression (10 mg/kg oral, 4 h): 0.50 fold-change
- lanosterol synthase (Lss) RNA expression (10 mg/kg oral, 4 h): 0.51 fold-change
- mevalonate (diphospho) decarboxylase (Mvd) RNA expression (10 mg/kg oral, 4 h): 0.28 fold-change
- mevalonate kinase (Mvk) RNA expression (10 mg/kg oral, 4 h): 0.76 fold-change
- phosphomevalonate kinase (Pmvk) RNA expression (10 mg/kg oral, 4 h): 0.66 fold-change
- squalene epoxidase (Sqle) RNA expression (10 mg/kg oral, 4 h): 0.48 fold-change
- sterol-C4-methyl oxidase-like (Sc4mol) RNA expression (10 mg/kg oral, 4 h): 0.39 fold-change
- sterol-C5-desaturase (fungal ERG3, delta-5-desaturase) homolog (S. cerevisae) (Sc5d) RNA expression (10 mg/kg oral, 4 h): 0.49 fold-change
- 3-hydroxy-3-methylglutaryl-Coenzyme A reductase (Hmgcr) RNA expression (10 mg/kg oral, 8 h): 0.66 fold-change
- 3-hydroxy-3-methylglutaryl-Coenzyme A synthase 1 (Hmgcs1) RNA expression (10 mg/kg oral, 8 h): 1.23 fold-change
- 7-dehydrocholesterol reductase (Dhcr7) RNA expression (10 mg/kg oral, 8 h): 1.18 fold-change
- NAD(P) dependent steroid dehydrogenase-like (Nsdhl) RNA expression (10 mg/kg oral, 8 h): 1.40 fold-change
- acetyl-Coenzyme A acetyltransferase 2 (Acat2) RNA expression (10 mg/kg oral, 8 h): 1.09 fold-change
- cytochrome P450, family 51 (Cyp51) RNA expression (10 mg/kg oral, 8 h): 1.05 fold-change
- farnesyl diphosphate farnesyl transferase 1 (Fdft1) RNA expression (10 mg/kg oral, 8 h): 1.42 fold-change
- farnesyl diphosphate synthetase (Fdps) RNA expression (10 mg/kg oral, 8 h): 1.15 fold-change
- isopentenyl-diphosphate delta isomerase (Idi1) RNA expression (10 mg/kg oral, 8 h): 1.08 fold-change
- lanosterol synthase (Lss) RNA expression (10 mg/kg oral, 8 h): 1.04 fold-change
- mevalonate (diphospho) decarboxylase (Mvd) RNA expression (10 mg/kg oral, 8 h): 0.58 fold-change
- mevalonate kinase (Mvk) RNA expression (10 mg/kg oral, 8 h): 0.88 fold-change
- phosphomevalonate kinase (Pmvk) RNA expression (10 mg/kg oral, 8 h): 1.53 fold-change
- squalene epoxidase (Sqle) RNA expression (10 mg/kg oral, 8 h): 0.81 fold-change
- sterol-C4-methyl oxidase-like (Sc4mol) RNA expression (10 mg/kg oral, 8 h): 0.92 fold-change
- sterol-C5-desaturase (fungal ERG3, delta-5-desaturase) homolog (S. cerevisae) (Sc5d) RNA expression (10 mg/kg oral, 8 h): 0.52 fold-change

Compound: CC(C)Oc1ccc2c(O)c(C(=O)NCC(=O)O)nc(C#N)c2c1 [Compound H, [(1-Cyano-4-hydroxy-7-isopropoxy-isoquinoline-3-carbonyl)-amino]-acetic acid]
- 3-hydroxy-3-methylglutaryl-Coenzyme A reductase (Hmgcr) RNA expression (60 mg/kg oral, 4 h): 0.23 fold-change
- 3-hydroxy-3-methylglutaryl-Coenzyme A synthase 1 (Hmgcs1) RNA expression (60 mg/kg oral, 4 h): 0.62 fold-change
- 7-dehydrocholesterol reductase (Dhcr7) RNA expression (60 mg/kg oral, 4 h): 0.83 fold-change
- NAD(P) dependent steroid dehydrogenase-like (Nsdhl) RNA expression (60 mg/kg oral, 4 h): 0.76 fold-change
- acetyl-Coenzyme A acetyltransferase 2 (Acat2) RNA expression (60 mg/kg oral, 4 h): 0.71 fold-change
- cytochrome P450, family 51 (Cyp51) RNA expression (60 mg/kg oral, 4 h): 0.66 fold-change
- farnesyl diphosphate farnesyl transferase 1 (Fdft1) RNA expression (60 mg/kg oral, 4 h): 0.59 fold-change
- farnesyl diphosphate synthetase (Fdps) RNA expression (60 mg/kg oral, 4 h): 0.69 fold-change
- isopentenyl-diphosphate delta isomerase (Idi1) RNA expression (60 mg/kg oral, 4 h): 0.63 fold-change
- lanosterol synthase (Lss) RNA expression (60 mg/kg oral, 4 h): 0.65 fold-change
- mevalonate (diphospho) decarboxylase (Mvd) RNA expression (60 mg/kg oral, 4 h): 0.45 fold-change
- mevalonate kinase (Mvk) RNA expression (60 mg/kg oral, 4 h): 0.74 fold-change
- phosphomevalonate kinase (Pmvk) RNA expression (60 mg/kg oral, 4 h): 0.71 fold-change
- squalene epoxidase (Sqle) RNA expression (60 mg/kg oral, 4 h): 0.95 fold-change
- sterol-C4-methyl oxidase-like (Sc4mol) RNA expression (60 mg/kg oral, 4 h): 0.50 fold-change
- sterol-C5-desaturase (fungal ERG3, delta-5-desaturase) homolog (S. cerevisae) (Sc5d) RNA expression (60 mg/kg oral, 4 h): 0.92 fold-change
- 3-hydroxy-3-methylglutaryl-Coenzyme A reductase (Hmgcr) RNA expression (60 mg/kg oral, 8 h): 0.17 fold-change
- 3-hydroxy-3-methylglutaryl-Coenzyme A synthase 1 (Hmgcs1) RNA expression (60 mg/kg oral, 8 h): 0.19 fold-change
- 7-dehydrocholesterol reductase (Dhcr7) RNA expression (60 mg/kg oral, 8 h): 0.39 fold-change
- NAD(P) dependent steroid dehydrogenase-like (Nsdhl) RNA expression (60 mg/kg oral, 8 h): 0.34 fold-change
- acetyl-Coenzyme A acetyltransferase 2 (Acat2) RNA expression (60 mg/kg oral, 8 h): 0.44 fold-change
- cytochrome P450, family 51 (Cyp51) RNA expression (60 mg/kg oral, 8 h): 0.28 fold-change
- farnesyl diphosphate farnesyl transferase 1 (Fdft1) RNA expression (60 mg/kg oral, 8 h): 0.33 fold-change
- farnesyl diphosphate synthetase (Fdps) RNA expression (60 mg/kg oral, 8 h): 0.24 fold-change
- isopentenyl-diphosphate delta isomerase (Idi1) RNA expression (60 mg/kg oral, 8 h): 0.28 fold-change
- lanosterol synthase (Lss) RNA expression (60 mg/kg oral, 8 h): 0.35 fold-change
- mevalonate (diphospho) decarboxylase (Mvd) RNA expression (60 mg/kg oral, 8 h): 0.24 fold-change
- mevalonate kinase (Mvk) RNA expression (60 mg/kg oral, 8 h): 0.37 fold-change
- phosphomevalonate kinase (Pmvk) RNA expression (60 mg/kg oral, 8 h): 0.5 fold-change
- squalene epoxidase (Sqle) RNA expression (60 mg/kg oral, 8 h): 0.30 fold-change
- sterol-C4-methyl oxidase-like (Sc4mol) RNA expression (60 mg/kg oral, 8 h): 0.19 fold-change
- sterol-C5-desaturase (fungal ERG3, delta-5-desaturase) homolog (S. cerevisae) (Sc5d) RNA expression (60 mg/kg oral, 8 h): 0.61 fold-change

Compound: Cc1cccc(C)c1Oc1ccc2c(O)c(C(=O)NCC(=O)O)nc(C#N)c2c1 [Compound I, {[1-Cyano-7-(2,6-dimethyl-phenoxy)-4-hydroxy-isoquinoline-3-carbonyl]-amino}-acetic acid]
- 3-hydroxy-3-methylglutaryl-Coenzyme A reductase (Hmgcr) RNA expression (10 mg/kg oral, 4 h): 0.41 fold-change
- 3-hydroxy-3-methylglutaryl-Coenzyme A synthase 1 (Hmgcs1) RNA expression (10 mg/kg oral, 4 h): 1.43 fold-change
- 7-dehydrocholesterol reductase (Dhcr7) RNA expression (10 mg/kg oral, 4 h): 1.41 fold-change
- NAD(P) dependent steroid dehydrogenase-like (Nsdhl) RNA expression (10 mg/kg oral, 4 h): 1.66 fold-change
- acetyl-Coenzyme A acetyltransferase 2 (Acat2) RNA expression (10 mg/kg oral, 4 h): 1.21 fold-change
- cytochrome P450, family 51 (Cyp51) RNA expression (10 mg/kg oral, 4 h): 0.81 fold-change
- farnesyl diphosphate farnesyl transferase 1 (Fdft1) RNA expression (10 mg/kg oral, 4 h): 0.85 fold-change
- farnesyl diphosphate synthetase (Fdps) RNA expression (10 mg/kg oral, 4 h): 1.45 fold-change
- isopentenyl-diphosphate delta isomerase (Idi1) RNA expression (10 mg/kg oral, 4 h): 1.40 fold-change
- lanosterol synthase (Lss) RNA expression (10 mg/kg oral, 4 h): 0.74 fold-change
- mevalonate (diphospho) decarboxylase (Mvd) RNA expression (10 mg/kg oral, 4 h): 0.45 fold-change
- mevalonate kinase (Mvk) RNA expression (10 mg/kg oral, 4 h): 1.02 fold-change
- phosphomevalonate kinase (Pmvk) RNA expression (10 mg/kg oral, 4 h): 1.25 fold-change
- squalene epoxidase (Sqle) RNA expression (10 mg/kg oral, 4 h): 1.36 fold-change
- sterol-C4-methyl oxidase-like (Sc4mol) RNA expression (10 mg/kg oral, 4 h): 0.88 fold-change
- sterol-C5-desaturase (fungal ERG3, delta-5-desaturase) homolog (S. cerevisae) (Sc5d) RNA expression (10 mg/kg oral, 4 h): 0.87 fold-change
- 3-hydroxy-3-methylglutaryl-Coenzyme A reductase (Hmgcr) RNA expression (10 mg/kg oral, 8 h): 0.17 fold-change
- 3-hydroxy-3-methylglutaryl-Coenzyme A synthase 1 (Hmgcs1) RNA expression (10 mg/kg oral, 8 h): 0.19 fold-change
- 7-dehydrocholesterol reductase (Dhcr7) RNA expression (10 mg/kg oral, 8 h): 0.30 fold-change
- NAD(P) dependent steroid dehydrogenase-like (Nsdhl) RNA expression (10 mg/kg oral, 8 h): 0.21 fold-change
- acetyl-Coenzyme A acetyltransferase 2 (Acat2) RNA expression (10 mg/kg oral, 8 h): 0.43 fold-change
- cytochrome P450, family 51 (Cyp51) RNA expression (10 mg/kg oral, 8 h): 0.12 fold-change
- farnesyl diphosphate farnesyl transferase 1 (Fdft1) RNA expression (10 mg/kg oral, 8 h): 0.32 fold-change
- farnesyl diphosphate synthetase (Fdps) RNA expression (10 mg/kg oral, 8 h): 0.16 fold-change
- isopentenyl-diphosphate delta isomerase (Idi1) RNA expression (10 mg/kg oral, 8 h): 0.12 fold-change
- lanosterol synthase (Lss) RNA expression (10 mg/kg oral, 8 h): 0.28 fold-change
- mevalonate (diphospho) decarboxylase (Mvd) RNA expression (10 mg/kg oral, 8 h): 0.19 fold-change
- mevalonate kinase (Mvk) RNA expression (10 mg/kg oral, 8 h): 0.37 fold-change
- phosphomevalonate kinase (Pmvk) RNA expression (10 mg/kg oral, 8 h): 0.41 fold-change
- squalene epoxidase (Sqle) RNA expression (10 mg/kg oral, 8 h): 0.16 fold-change
- sterol-C4-methyl oxidase-like (Sc4mol) RNA expression (10 mg/kg oral, 8 h): 0.11 fold-change
- sterol-C5-desaturase (fungal ERG3, delta-5-desaturase) homolog (S. cerevisae) (Sc5d) RNA expression (10 mg/kg oral, 8 h): 0.54 fold-change
